Measured values reported in patent publication US10501438B2, “Aryl-substituted dihydroquinolinones, their preparation and their use as pharmaceuticals” (NEOMED Institute, priority 2015, dated 2019).

Test system: human C-Myc transcription in MV-4-11 cells
Assay: Transcription of human C-Myc in human leukemic MV-4-11 cells (QuantiGene 2.0)
Format: cell-based
Conditions: Homo sapiens, MV4-11, 4 h, inhibition of C-Myc mRNA, 4 hours treatment
Procedure: b) Transcription of Human C-Myc in Human Leukemic MV-4-11 Cells:
The effect of compounds on transcription of human C-Myc gene is monitored in human B-myelomonocytic leukemia cell line MV-4-11 (from American Type Culture Collection (ATCC), Manassas, Va., USA) using QuantiGene 2.0 assay kit (Affymetrix, Santa Clara, Calif., USA).
Typically, 8,000 MV-4-11 cells are plated in sterile 96-well plates (Costar #3598 from Fisher Scientific Canada, Ottawa, Ontario, Canada) in Iscove's medium supplemented with 10% fetal bovine serum, glutamine (2 mM), and penicillin (100 I.U.) and streptomycin (100 μg/mL) (all from Wisent Inc., St. Bruno, Quebec, Canada). Compounds are dissolved in DMSO at 30 mM. A series of 1:3 dilutions are first made in DMSO, and further 1:100 dilutions are made in serum-containing cell culture media. The final concentration of DMSO is 0.1% in cell culture media. After cells are treated with various concentrations of test compound for 4 hours, cells are lysed using Quantigene 2.0 sample processing kit (#QS0100). C-Myc mRNA is detected using a QuantiGene 2.0 assay kit (#QS0009) with gene-specific probe to human C-Myc (#SA-50182) following the manufacturer's recommendations. Luminescene signals are read on Flexstation II microplate reader (Molecular Devices, Sunnyvale, Calif., USA).

Compound	IC50 [nM]
Cc1cc(-c2cc3c(c(OCc4cccnc4)c2)NC(=O)CC3)cn(C)c1=O [Compound 25, 6-(1,5-dimethyl-6-oxo-1,6-dihydropyridin-3-yl)-8-(pyridin-3-ylmethoxy)-3,4-dihydroquinolin-2(1H)-one]	150
Cc1cc(-c2ccc3c(c2Cc2cccnc2)CCC(=O)N3)cn(C)c1=O [Compound 58, 6-(1,5-dimethyl-6-oxo-1,6-dihydropyridin-3-yl)-5-(pyridin-3-ylmethyl)-3,4-dihydroquinolin-2(1H)-one]	250
Cc1cc(-c2cc3c(cc2Cc2cccnc2)CCC(=O)N3)cn(C)c1=O [Compound 101, 7-(1,5-dimethyl-6-oxo-1,6-dihydropyridin-3-yl)-6-(pyridin-3-ylmethyl)-3,4-dihydroquinolin-2(1H)-one]	2680
Cc1cc(-c2cc3c(cc2COC2CCCC2)NC(=O)CC3)cn(C)c1=O [Compound 70, 7-((cyclopentyloxy)methyl)-6-(1,5-dimethyl-6-oxo-1,6-dihydropyridin-3-yl)-3,4-dihydroquinolin-2(1H)-one]	7820
Cc1cc(-c2cc3c(c(NCc4ccncc4)c2)NC(=O)CC3)cn(C)c1=O [Compound 28, 6-(1,5-dimethyl-6-oxo-3-pyridyl)-8-(4-pyridylmethylamino)-3,4-dihydro-1H-quinolin-2-one]	420
Cn1cc(-c2cc3c(c(OCc4ccccn4)c2)NC(=O)CC3)cc(Cl)c1=O [Compound 79, 6-(5-chloro-1-methyl-6-oxo-1,6-dihydropyridin-3-yl)-8-(pyridin-2-ylmethoxy)-3,4-dihydroquinolin-2(1H)-one]	240
Cc1cc(-c2ccc3c(c2/C=C/c2ccccc2)CCC(=O)N3)cn(C)c1=O [Compound 94, (E)-6-(1,5-dimethyl-6-oxo-1,6-dihydropyridin-3-yl)-5-styryl-3,4-dihydroquinolin-2(1H)-one]	730
Cc1cc(-c2cc3c(c(OCc4ccc(F)cn4)c2)NC(=O)CC3)cn(C)c1=O [Compound 77, 6-(1,5-dimethyl-6-oxo-1,6-dihydropyridin-3-yl)-8-((5-fluoropyridin-2-yl)methoxy)-3,4-dihydroquinolin-2(1H)-one]	2280
Cc1cc(-c2cc3c(c(NCc4cccnc4)c2)NC(=O)CC3)cn(C)c1=O [Compound 78, 6-(1,5-dimethyl-6-oxo-1,6-dihydropyridin-3-yl)-8-(pyridyl-3-ylmethylamino)-3,4-dihydro-1H-quinolin-2-one]	100
Cc1cc(-c2ccc3c(c2C(C)c2ccccc2)CCC(=O)N3)cn(C)c1=O (stereo not shown) [Compound 95, 6-(1,5-dimethyl-6-oxo-1,6-dihydropyridin-3-yl)-5-(1-phenylethyl)-3,4-dihydroquinolin-2(1H)-one]	30
Cc1cc(-c2cc3c(c(COc4ccccc4)c2)NC(=O)CC3)cn(C)c1=O [Compound 44, 6-(1,5-dimethyl-6-oxo-1,6-dihydropyridin-3-yl)-8-(phenoxymethyl)-3,4-dihydroquinolin-2(1H)-one]	270
Cc1cc(-c2ccc3c(c2COC2CCC2)NC(=O)CC3)cn(C)c1=O [Compound 39, 8-(cyclobutoxymethyl)-7-(1,5-dimethyl-6-oxo-1,6-dihydropyridin-3-yl)-3,4-dihydroquinolin-2(1H)-one]	9850
Cc1cc(-c2cc3c(cc2COC2CCC2)NC(=O)CC3)cn(C)c1=O [Compound 69, 7-(cyclobutoxymethyl)-6-(1,5-dimethyl-6-oxo-1,6-dihydropyridin-3-yl)-3,4-dihydroquinolin-2(1H)-one]	1250
Cc1cc(-c2cc3c(cc2Cc2ccccn2)CCC(=O)N3)cn(C)c1=O [Compound 32, 7-(1,5-dimethyl-6-oxo-1,6-dihydropyridin-3-yl)-6-(pyridin-2-ylmethyl)-3,4-dihydroquinolin-2(1H)-one]	2230
Cc1cc(-c2cc3c(cc2/C=C/c2ccccc2)NC(=O)CC3)cn(C)c1=O [Compound 93, (E)-6-(1,5-dimethyl-6-oxo-1,6-dihydropyridin-3-yl)-7-styryl-3,4-dihydroquinolin-2(1H)-one]	760
Cc1cc(-c2cc3c(c(OCc4cscn4)c2)NC(=O)CC3)cn(C)c1=O [Compound 82, 6-(1,5-dimethyl-6-oxo-1,6-dihydropyridin-3-yl)-8-(thiazol-4-ylmethoxy)-3,4-dihydroquinolin-2(1H)-one]	250

Compound	IC50 [nM]
Cc1cc(-c2cc3c(c(Oc4ccccc4)c2)NC(=O)CC3)cn(C)c1=O [Compound 15, 6-(1,5-dimethyl-6-oxo-1,6-dihydropyridin-3-yl)-8-phenoxy-3,4-dihydroquinolin-2(1H)-one]	2620
CC(=O)N(Cc1cc(-c2cc(C)c(=O)n(C)c2)cc2c1NC(=O)CC2)C1CCCC1 [Compound 98, N-cyclopentyl-N-((6-(1,5-dimethyl-6-oxo-1,6-dihydropyridin-3-yl)-2-oxo-1,2,3,4-tetrahydroquinolin-8-yl)methyl)acetamide]	90
Cc1cc(-c2cc3c(c(OCc4cncnc4)c2)NC(=O)CC3)cn(C)c1=O [Compound 53, 6-(1,5-dimethyl-6-oxo-1,6-dihydropyridin-3-yl)-8-(pyrimidin-5-ylmethoxy)-3,4-dihydroquinolin-2(1H)-one]	2080
Cc1cc(-c2cc3c(cc2COC2CCCC2)CCC(=O)N3)cn(C)c1=O [Compound 34, 6-((cyclopentyloxy)methyl)-7-(1,5-dimethyl-6-oxo-1,6-dihydropyridin-3-yl)-3,4-dihydroquinolin-2(1H)-one]	2820
Cc1cc(-c2cc3c(c(COC4CCCOC4)c2)NC(=O)CC3)cn(C)c1=O (stereo not shown) [Compound 48a, 6-(1,5-dimethyl-6-oxo-1,6-dihydropyridin-3-yl)-8-(((tetrahydro-2H-pyran-3-yl)oxy)methyl)-3,4-dihydroquinolin-2(1H)-one]	2120
Cc1cccnc1COc1cc(-c2cc(C)c(=O)n(C)c2)cc2c1NC(=O)CC2 [Compound 76, 6-(1,5-dimethyl-6-oxo-1,6-dihydropyridin-3-yl)-8-((3-methylpyridin-2-yl)methoxy)-3,4-dihydroquinolin-2(1H)-one]	560
Cc1cc(-c2cc3c(c(NC(C)c4ccccn4)c2)NC(=O)CC3)cn(C)c1=O (stereo not shown) [Compound 22, 6-(1,5-dimethyl-6-oxo-3-pyridyl)-8-[1-(2-pyridyl)ethylamino]-3,4-dihydro-1H-quinolin-2-one]	240
Cc1cc(-c2cc3c(c(OCc4ncco4)c2)NC(=O)CC3)cn(C)c1=O [Compound 81, 6-(1,5-dimethyl-6-oxo-1,6-dihydropyridin-3-yl)-8-(oxazol-2-ylmethoxy)-3,4-dihydroquinolin-2(1H)-one]	530
Cc1cc(-c2cc3c(cc2Cc2ccccn2)NC(=O)CC3)cn(C)c1=O [Compound 61, 6-(1,5-dimethyl-6-oxo-1,6-dihydropyridin-3-yl)-7-(pyridin-2-ylmethyl)-3,4-dihydroquinolin-2(1H)-one]	890
Cc1cc(-c2cc3c(c(N(C)Cc4ccccc4)c2)NC(=O)CC3)cn(C)c1=O [Compound 5, 8-[benzyl(methyl)amino]-6-(1,5-dimethyl-6-oxo-3-pyridyl)-3,4-dihydro-1H-quinolin-2-one]	250
Cc1cc(-c2cc3c(c(OCC4CCCC4)c2)NC(=O)CC3)cn(C)c1=O [Compound 29, 8-(cyclopentylmethoxy)-6-(1,5-dimethyl-6-oxo-1,6-dihydropyridin-3-yl)-3,4-dihydroquinolin-2(1H)-one]	190
Cc1cc(-c2ccc3c(c2Cc2ccc(F)cc2)CCC(=O)N3)cn(C)c1=O [Compound 91, 6-(1,5-dimethyl-6-oxo-1,6-dihydropyridin-3-yl)-5-(4-fluorobenzyl)-3,4-dihydroquinolin-2(1H)-one]	100
Cc1cc(-c2cc3c(c(COC4CCCC4)c2)NC(=O)CC3)cn(C)c1=O [Compound 21, 8-(cyclopentoxymethyl)-6-(1,5-dimethyl-6-oxo-3-pyridyl)-3,4-dihydro-1H-quinolin-2-one]	280
Cc1cc(-c2cc3c(cc2Cc2cccnc2)NC(=O)CC3)cn(C)c1=O [Compound 62, 6-(1,5-dimethyl-6-oxo-1,6-dihydropyridin-3-yl)-7-(pyridin-3-ylmethyl)-3,4-dihydroquinolin-2(1H)-one]	860
Cc1cc(-c2cc3c(c(COC4CCOCC4)c2)NC(=O)CC3)cn(C)c1=O [Compound 47, 6-(1,5-dimethyl-6-oxo-1,6-dihydropyridin-3-yl)-8-(((tetrahydro-2H-pyran-4-yl)oxy)methyl)-3,4-dihydroquinolin-2(1H)-one]	940

Same assay, conditions: inhibition of C-Myc mRNA, 4 hours treatment

Compound	IC50 [nM]
Cc1cc(-c2cc3c(c(NC(C)c4ccccn4)c2)NC(=O)CC3)cn(C)c1=O (stereo not shown) [Compound 23, 6-(1,5-dimethyl-6-oxo-3-pyridyl)-8-[1-(2-pyridyl)ethylamino]-3,4-dihydro-1H-quinolin-2-one]	240
Cc1cc(-c2cc3c(c(OCC4CCCOC4)c2)NC(=O)CC3)cn(C)c1=O (stereo not shown) [Compound 54b, 6-(1,5-dimethyl-6-oxo-1,6-dihydropyridin-3-yl)-8-((tetrahydro-2H-pyran-3-yl)methoxy)-3,4-dihydroquinolin-2(1H)-one]	800
Cc1cc(-c2cc3c(c(OC(C)c4cccnc4)c2)NC(=O)CC3)cn(C)c1=O (single isomer, unassigned) [Compound 92a, 6-(1,5-dimethyl-6-oxo-1,6-dihydropyridin-3-yl)-8-(1-(pyridin-3-yl)ethoxy)-3,4-dihydroquinolin-2(1H)-one]	90
